US20050154046A1, “Methods of treating an inflammatory-related disease” (priority 2004, published 2005)
“Also recorded” adds a separate entry of the source.

Tests used:
IL-6 = IL-6 secretion (ELISA) in LPS-stimulated THP-1 cells; type: cell-based, human
Method: Standard IL-6 protein was used to establish a standard curve for the calculation of IL-6 in the medium secreted by the cells (LPS-stimulated or non-stimulated cells in the presence or absence of Meisoindigo).
1) Effects of Meisoindigo and NATURA on the expression/secretion of cytokines IL-1β, IL-6, IL-10: The human monocytic THP-1 cells grown exponentially were stimulated with or without 1 μM of lipopolysaccharide (LPS, Sigma), and exposed for 24 hours to different concentrations of Meisoindigo and NATURA (from 31.25 nM and 62.5 nM), respectively. Viability of cells was examined by trypan blue exception assay.

IL-6 mRNA = assay: IL-6 transcription (real time PCR) in LPS-stimulated THP-1 cells; type: cell-based, human; settings: 1 μM, 1 μg/ml LPS, 24 h
Method: Real Time PCR: The effect of Meisoindigo on the transcription of IL-6 (RNA levels) was determined by a technique of real time polymerase chain reaction (real time PCR). Total RNA was extracted using a Qiagen […] the HPRT gene was used as internal control. Human monocytic THP-1 cells at exponential growth phase were exposed to 1 μg/ml of LPS, 1 μM of Meisoindigo, or 1 μg/ml of LPS plus 1 μM of Meisoindigo for 24 hours. The cells were then harvested, washed and total RNA extracted for real time PCR assay. Total RNA (300 ng) was treated with DNase I (Promega, Madison, Wis.), and SuperScript II (Invitrogen, Carlsbad, Calif.) and oligo(dT) were used for reverse transcription according to the manufacturers' instructions. Real-time PCR reactions were performed in a 25-μL volume containing diluted cDNA, Sybr Green PCR Master Mix (Applied Biosystems), and 2.5 μM each IL-6 gene-specific primer: […] and […] An ABI SDS7700 analyzer (Applied Biosystems) was used at 50° C. for 2 minutes and 95° C. for 10 minutes, followed by 40 cycles at 95° C. for 15 seconds and 60° C. for 1 minute. Test cDNA results were normalized to HPRT internal control measured on the same plate. After cycling, the specificity of amplification was validated by the generation of a melting curve through slow denaturation of the PCR products and then by gel electrophoresis.

TNF-α = TNF-α secretion (ELISA) in LPS-stimulated THP-1 cells; type: cell-based, human
Method: Methods: The cells were stimulated with or without […] of lipopolysaccharide (LPS, Sigma), and exposed for 24 hours to different concentrations of Meisoindigo (from 31.25 nM to 16,000 nM). Viability of cells was examined under microscope after trypan blue staining. Protein levels of IL-1β secreted into the culture media by the cells were then measured by ELISA and calculated from its standard curve using an assay Kit from R&D Systems according to instructions provided by the supplier. The method was established and validated by a good standard curve obtained. An example of the standard curve is shown in FIG. 2, panel A. The representative derivative Meisoindigo was used. The cell line and the procedure of ELISA to measure secretion of TNF-α were the same as described in Example 1, except the standard TNF-α protein was used to establish a standard curve for the calculation of the protein secreted in the medium by the cells (LPS-stimulated or non-stimulated cells in the presence or absence of Meisoindigo).

TNF-α mRNA = assay: TNF-α transcription (real time PCR) in LPS-stimulated THP-1 cells; type: cell-based, human; settings: 4 μM, 24 h
Method: The effect of Meisoindigo on the transcription of TNF-α (RNA levels) was determined by a technique of real time PCR using the same procedures described in Example 2, except the specific primers for TNF-α were used as follows: 5′-[…], and 5′[…]. Total RNA was extracted using a Qiagen Rneasy minit kit, and the HPRT gene was used as internal control.
Human monocytic THP-1 cells grown exponentially were exposed to […] of LPS, 4 μM of Meisoindigo, or 1 μg/ml of LPS plus 4 μM of Meisoindigo for 24 hours. The cells were then harvested, washed and total RNA extracted for real time PCR assay as described in Example 2.

CDK2 = biological target: T1, CDK2 (Homo sapiens, UniProt P24941); assay: Cyclin dependent kinase activity in THP-1 cells (immunoprecipitation, histone H1 phosphorylation); type: cell-based; settings: 24 h
T1 construct: endogenous in cells; host or cells: THP-1
Method: (§1) 2) Effects of Meisoindigo and/or NATURA on activity of cyclin dependent kinases (CDK) in THP-1 cells (99): THP-1 cells grown exponentially were exposed to […] of Meisoindigo or NATURA for 24 hr, respectively.
(§2) The cells were harvested, washed, and total proteins extracted as described previously (100). One hundred μg of the proteins were immuno-precipitated using antibodies against either cdk2, cdk4/6 or cyclin D1 overnight at 4° C. in the presence of a cocktail of protease inhibitors. The immuno-precipitates were washed 4 times with protein extraction buffer and once with kinase assay buffer, and reacted with […] histone H1 in the presence of [γ-^32P]-ATP (10 μCi/10 μM). The phosphorylated histone H1 (represent cdk activity) was measured by scintillation counting or by SDS-polyacrylaimde gel electrophoresis (101, 102).

cdk4/6 = assay: as above; type: cell-based, human; settings: 31.25 and 62.5 nM, 24 h
Method: as §1, §2

cyclin D1 = assay: Cyclin D1 levels in THP-1 cells; type: cell-based, human; settings: 31.25 and 62.5 nM, 24 h; data not shown
THP-1 cells = assay: Viability of THP-1 cells by trypan blue staining; type: cell-based, human; settings: up to 8 μM
Method: Methods: The cells were stimulated with or without […] of lipopolysaccharide (LPS, Sigma), and exposed for 24 hours to different concentrations of Meisoindigo (from 31.25 nM to 16,000 nM). Viability of cells was examined under microscope after trypan blue staining. Protein levels of IL-1β secreted into the culture media by the cells were then measured by ELISA and calculated from its standard curve using an assay Kit from R&D Systems according to instructions provided by the supplier. The method was established and validated by a good standard curve obtained.

IL-15 = IL-15 real time PCR in LPS-stimulated THP-1 cells; type: cell-based, human; settings: data not shown
IL-2 = IL-2 secretion in LPS-stimulated THP-1 cells; type: cell-based, human; settings: cells could not be stimulated to secrete IL-2
[1] = system: chronic myeloid leukemia (CML); settings: cited from earlier work
[2] = LPS-stimulated THP-1 cells, LPS alone 100.00

CN1C(=O)/C(=C2/C(=O)Nc3ccccc32)c2ccccc21 [Meisoindigo]
reduction of IL-6 secretion (IL-6; 31.25 nM, LPS 1 μg/ml, THP-1 cells): Approximately 85%
IL-6 (Inhibition), Percentage of Maximal Response Without Cytotoxicity (IL-6; [2]): 83.51 ± 5.41%
effect on IL-6 production/secretion (IL-6; as low as 31.25 nM (31.25 and 62.5 nM in FIG. 6), 24 h): significantly inhibit
LPS-induced IL-6 transcription (IL-6 mRNA): completely suppressed; also recorded: significantly inhibits
reduction of TNF-α secretion (TNF-α; 2.0 μM, 24 h): Approximately 50%
inhibition of TNF-α secretion (TNF-α; 16 μM): complete inhibition
effect on TNF-α secretion over the concentration series (TNF-α; 0.031 to 16 μM, 24 h): effectively inhibited; also recorded: concentration-dependent inhibition
TNF-α (Inhibition), Percentage of Maximal Response Without Cytotoxicity (TNF-α; [2]): 49.20 ± 3.37%
further reduction of TNF-α secretion on increasing the concentration (TNF-α; up to 8 μM): did not cause further reduction
effect on TNF-α mRNA levels / transcription (TNF-α mRNA): No effect
partial inhibition of CDK activity (CDK2; 1.5 μM, FIG. 6B): 23%
inhibition of CDK2 activity (CDK2; 31.25 and 62.50 nM): failed to inhibit; also recorded: no inhibitory effect
inhibition of cyclin dependent kinase 4 and 6 activity (cdk4/6): failed to inhibit
effect on levels of cyclin D1 (cyclin D1): failed to inhibit
cell deaths (THP-1 cells): no cell deaths were observed
inhibition on IL-15 (real time PCR) (IL-15): moderate inhibition
effect on IL-2 secretion (IL-2): no effects were observed
side effects reported ([1]; 150 mg per day, China): very minor side effects
total dosage needed to achieve the maximal remission of CML [1]: 8696 mg
